We go through ten compounds from patent US6001853A, “Hydroxylamine compositions for the prevention or retardation of cataracts” (priority 1998, dated 1999).

For one data set, the system named is experimental cataracts. The note with it: cited from earlier work.
The next data set has as its system lens proteins. The note with it: in vitro; cited from earlier work.
The test system of data set [1] is cataracts in x-ray irradiated rats. The note with it: cited from earlier work.
For data set [2], the system named is rat lenses. In words: Rubidium-86 accumulation by cultured rat lenses (H2O2 stress). In kind it is cell-based, Sprague-Dawley rat. To be noted: for prevention of decrement in Rb-86 accumulation associated with H2O2 exposure: 0.25 mM H2O2, agent added at beginning of assay; for effect on Rb-86 accumulation of control lenses: added to medium of control lenses at beginning of assay, no H2O2. Here is the method:
(§1) Such assays are accepted as an indication of the in vivo effect of a drug in retarding the development of cataracts.
(§2) The techniques described in references 10 and 11 were used in this assay. Rat lenses used in these studies were obtained from Sprague-Dawley male rats. The lenses were incubated in 24-well clusters in modified TC-199 medium (prepared as described in Zigler and Hess, Exp. Eye Res. 41:67, 1985) and placed in a 37° C. incubator with a 95% air/5% CO2 humidified atmosphere. The lenses were incubated in about 2.0 ml of culture medium, which was adjusted to about 300 milliosmoles. The assays were usually of 22 hours duration, and tracer levels of ^86 Rb or tritiated choline were added at 18 hours so that the tracer was present during the last four hours of the assay.
Two potential anti-cataract agents were tested in this experiment: E-64 (a protease inhibitor) and pantetheine (a putative phase separation inhibitor) were added to the culture medium at the beginning of the assay.
(§3) The experiment was performed essentially as described for Example 2, except that TEMPOL-H was added at 3 or 4 mM or was added at 3 mM together with MPG at either 0.5 or 1 mM.

The test system of data set [3] is rat lenses. In words: Tritiated choline accumulation by cultured rat lenses (H2O2 stress). It is filed as cell-based, Sprague-Dawley rat. To be noted: for reduction of the H2O2-induced decrement of tritiated choline concentration: 0.25 mM H2O2, MPG 1 mM, TEMPOL-H 5 mM. The protocol: as §1, §2
(§4) Rat lenses were cultured as described in reference 11 and Example 1. H2 O2 was added to experimental cultures to a concentration of 0.25 mM. Carnosine at 1 mM, MPG at 1 mM, or TEMPOL-H at 5 mM was added to some of the treated lenses at the beginning of the culture assay.
as §3

Data set [4] is described as follows: Systemic/ocular delivery of MPG by osmotic pump, detection in the eye. In kind it is in vivo, Sprague Dawley albino rats. To be noted: subcutaneous, intraperitoneal and ocular routes; 2 ml of 100 mM over 7 or 14 days. Here is the method: (§5) A 2 ml volume of 100 mM TEMPOL-H was provided in an ALZET osmotic pump, available from Alza Corporation of Palo Alto, Calif. The pump was programmed to deliver the 2 ml dose continuously (down an osmotic gradient) over a period of either 7 or 14 days.
The reducing agent MPG was also delivered to the subjects by subcutaneous, intraperitoneal and ocular routes, as described in Example 7, through an implanted osmotic pump. A 2 ml volume of 100 mM MPG was provided in the pump and delivered over a period of 7 days or 14 days.

Another data set relates to cells. The note with it: reported by Mitchell and colleagues; cited from earlier work.
Another data set has as its system lens. In words: Lens penetration and redox state by EPR of lens homogenate. It is filed as in vitro ADME, rat.
Description: TEMPOL-H is the reduced form of the nitroxide TEMPOL, which is a stable free radical detectable by electron paramagnetic resonance (EPR) spectroscopy, as in reference 12. TEMPOL-H can be readily converted to TEMPOL by oxidation with ferricyanide, and then can be quantitated by EPR spectroscopy. This provides a ready means of determining whether TEMPOL-H is present in experimental lenses and whether it is in the oxidized or reduced state. […] TEMPOL-H can in turn be oxidized to the nitroxide by dehydrogenases and activated oxygen species, such as singlet oxygen.
as §4
Following lens incubation, lenses were rinsed, then homogenized in buffer and aliquots of the homogenate analyzed by EPR. […] Only following treatment of the lens extract with ferricyanide was the nitroxide detected.

Data set [5] deals with rat lenses. It is filed as cell-based. To be noted: 1.0 mM H2O2 plus 4 mM TEMPOL-H, 24 hours. Here is the method:
Lenses were cultured as in the above examples.

Data set [6] can be described thus: Systemic delivery of TEMPOL-H by osmotic pump, plasma and eye concentrations. In kind it is in vivo, Sprague Dawley albino rats. To be noted: subcutaneous osmotic pump, 2 ml of 100 mM over 7 or 14 days. The protocol: as §5
In the rats who received subcutaneous delivery of the hydroxylamine, plasma TEMPOL-H concentrations of 0.25 μM were observed.

Like-named read-outs stand apart in the source and are kept apart here.

Take `CC(=O)Oc1ccccc1C(=O)O` [Aspirin]: in the data set on experimental cataracts, the “delay of experimental cataracts” value is “shown to delay experimental cataracts”.

With `O=C(O)COc1nn(Cc2ccccc2)c2ccccc12` [Bendazac], the “protection of lens proteins” value with lens proteins is on record as “found to protect lens proteins in vitro”. Also, the “delay of onset of cataracts” value in data set [1] is given as “delay the onset of cataracts in x-ray irradiated rats”.

In the case of `CC(C)CC(NC(=O)C1OC1C(=O)O)C(=O)NCCCCNC(=N)N` (stereo not shown) [E-64], in the data set on rat lenses [2], the “prevention of decrement in Rb-86 accumulation associated with H2O2 exposure” value is “neither prevented the decrement in accumulation” and the “effect on Rb-86 accumulation of control lenses” value is “small negative effect on Rb-86 accumulation”.

As to `OO` [H2 O2, hydrogen peroxide], the “Rb-86 accumulation (internal concentration relative to concentration in the medium)” value with rat lenses [2] (H2O2 bolus 0.25 mM, normal control lenses more than 7-fold) is listed as 5 fold.

Consider `CC(S)C(=O)NCC(=O)O` (stereo not shown) [MPG, N-(2-mercaptopropionyl) glycine], for which the “reduction of the H2O2-induced decrement of tritiated choline concentration” value with rat lenses [3] was “significant reduction in the decrement of tritiated choline concentration”. Also, the “detection of MPG in the eye” value in [4] is “detected in the eye”.

Consider `CC1(C)CC(O)CC(C)(C)N1[O]` [TEMPOL, 4-hydroxy-2,2,6,6-tetramethylpiperidin-1-yloxy], for which the “protection of cells from oxidative damage” value in the data set with cells was “protects cells from oxidative damage”.

Regarding `CC1(C)CC(O)CC(C)(C)N1O` [TEMPOL-H], the “effect on Rb-86 accumulation in lenses exposed to H2O2, dose response / combination” value with rat lenses [2] (TEMPOL-H 3 or 4 mM, or 3 mM with MPG 0.5 or 1 mM (FIG. 6)) is on record as “dose response effect”. The “reduction of the H2O2-induced decrement of tritiated choline concentration” value in the data set with rat lenses [3] is “significant reduction in the decrement of tritiated choline concentration”. In the data set with rat lenses [3] (TEMPOL-H 3 or 4 mM, or 3 mM with MPG 0.5 or 1 mM (FIG. 5)), the “effect on 3H-choline accumulation in lenses exposed to H2O2, dose response / combination” value is given as “dose response effect”. Besides, the “penetration of the lens from the culture medium” value in the data set on lens (EPR after lens incubation, TEMPOL-H 5 mM) is “does penetrate the lens from the culture medium”. Besides, in the data set with lens (nitroxide detected only following ferricyanide treatment of lens extract), the “redox state within the lens” value was “the highly reducing environment within the lens keeps the compound in the reduced state”. Further, the “inhibition of opacification of cultured lenses” value in the data set with rat lenses [5] was “clearly and consistently was found to inhibit opacification of the cultured lenses”. Moreover, the concentration was found to be 20 nM in data set [6] (read-out: concentration in the eye) and 250 nM in data set [6] (read-out: plasma TEMPOL-H concentration). Moreover, the “protection of cells from oxidative damage” value in the data set on cells is recorded as “affords no such protection”.

With `CC(=O)Nc1ccc(O)cc1` [acetaminophen], the “delay of experimental cataracts” value with experimental cataracts is listed as “shown to delay experimental cataracts”.

Take `CC(C)Cc1ccc(C(C)C(=O)O)cc1` (stereo not shown) [ibuprofen]: in the data set on experimental cataracts, the “delay of experimental cataracts” value is on record as “shown to delay experimental cataracts”.

With `CC(C)(CO)[C@@H](O)C(=O)NCCC(=O)NCCS` [pantetheine], in the data set on rat lenses [2], the “prevention of decrement in Rb-86 accumulation associated with H2O2 exposure” value is on record as “neither prevented the decrement in accumulation” and the “effect on Rb-86 accumulation of control lenses” value is “small negative effect on Rb-86 accumulation”.
